Calls of active or inactive are those of the source. How the calls were made is not given here.
Tested on: GENE-TOX genotoxicity assays, various organisms and cells
Assay: GENE-TOX mutagenicity studies
Conditions: for call: Assay Type: In vivo carcinogenicity studies
[1] = Species/Cell Type: Drosophila melanogaster, Assay Type: Sex-linked recessive lethal gene mutation, Assay Code: SRLT, Evaluation Type: Evaluation A (Pre-1980)
[2] = Species/Cell Type: Fischer rat embryo (RLV/1706) cells, Assay Type: Cell transformation, viral enhanced, Assay Code: CTR+, Evaluation Type: Evaluation A (Pre-1980)
[3] = Species/Cell Type: Mouse (BALB/c-3T3) cells, Assay Type: Cell transformation, Assay Code: CTB-, Evaluation Type: Evaluation A (Pre-1980)
[4] = Species/Cell Type: Nonhuman, Assay Code: CCG+, Evaluation Type: Evaluation A (Pre-1980)
[5] = Species/Cell Type: Saccharomyces cerevisiae, Assay Type: Mitotic recombination or gene conversion, Assay Code: YEC+, Evaluation Type: Evaluation A (Pre-1980)
[6] = Species/Cell Type: Saccharomyces cerevisiae, Assay Type: Mitotic recombination or gene conversion, Assay Code: YEH-, Evaluation Type: Evaluation A (Pre-1980)
[7] = Species/Cell Type: Salmonella typhimurium (one or more of the five standard strains: TA98, TA100, TA1535, TA1537, and TA1538), Assay Type: Histidine reverse gene mutation, Ames assay, Assay Code: SAL+*, Activation: With metabolic activation, Evaluation Type: Evaluation A (Pre-1980)
[8] = Species/Cell Type: Salmonella typhimurium, Assay Type: Forward and reverse gene mutation, host-mediated assay, Assay Code: HMA+, Evaluation Type: Evaluation A (Pre-1980)
[9] = Species/Cell Type: Mammalian polychromatic erythrocytes, Assay Type: Micronucleus test, chromosome aberrations, Assay Code: MNT+, Evaluation Type: Evaluation B (Post-1980)
[10] = Species/Cell Type: Salmonella typhimurium (one or more of the five standard strains: TA98, TA100, TA1535, TA1537, and TA1538), Assay Type: Histidine reverse gene mutation, Ames assay, Assay Code: SAL-, Evaluation Type: Evaluation A (Pre-1980)
[11] = Species/Cell Type: Drosophila melanogaster, Assay Type: Sex-linked recessive lethal gene mutation, Assay Code: SRL+, Evaluation Type: Evaluation A (Pre-1980)
[12] = Species/Cell Type: Salmonella typhimurium (one or more of the five standard strains: TA98, TA100, TA1535, TA1537, and TA1538), Assay Type: Histidine reverse gene mutation, Ames assay, Assay Code: SAL+, Evaluation Type: Evaluation A (Pre-1980)
[13] = Species/Cell Type: Allium cepa, Assay Type: Chromosome aberrations, Assay Code: ALC+, Evaluation Type: Evaluation A (Pre-1980)
[14] = Species/Cell Type: Rodents, Sex: Male, Assay Type: Dominant lethal test, Assay Code: DLT-, Evaluation Type: Evaluation A (Pre-1980)

In the case of `Nc1ccc2ccccc2c1`, the mutagenic call (Species/Cell Type: Chinese hamster ovary (CHO) cells, Assay Type: Forward gene mutation at the HPRT locus, Assay Code: CHO+, Evaluation Type: Evaluation B (Post-1980)) is reported as “active; positive”, the mutagenic call [1] is reported as “no conclusion” and the mutagenic call (Species/Cell Type: Escherichia coli polA (W3110 vs P3478), Assay Type: Rec-assay, DNA effects (bacterial DNA repair), Assay Code: RE2+, Evaluation Type: Evaluation A (Pre-1980)) is reported as “active; positive”. The mutagenic call (Species/Cell Type: Escherichia coli polA (W3119 vs P3478), Assay Type: Rec-assay, DNA effects (bacterial DNA repair), Assay Code: RE1-, Evaluation Type: Evaluation A (Pre-1980)) was “inactive; negative”, the mutagenic call (Species/Cell Type: Escherichia coli polA (W3119 vs P3478), Assay Type: Rec-assay, DNA effects (bacterial DNA repair), Assay Code: RE1T, Evaluation Type: Evaluation A (Pre-1980)) was “no conclusion” and the mutagenic call [2] was “active; positive”. The mutagenic call (Species/Cell Type: Mammalian polychromatic erythrocytes, Assay Type: Micronucleus test, chromosome aberrations, Assay Code: MNT+, Evaluation Type: Evaluation A (Pre-1980)) was “active; positive”, the mutagenic call [3] was “inactive; negative” and the mutagenic call (Species/Cell Type: Mouse embryo (AKR/ME) cells, Assay Type: Cell transformation, Assay Code: CTK+, Evaluation Type: Evaluation A (Pre-1980)) was “active; positive”. The mutagenic call (Species/Cell Type: Mouse, Sex: Male, Assay Type: Sperm morphology, Assay Code: SPI-, Evaluation Type: Evaluation A (Pre-1980)) was “inactive; negative”, the mutagenic call (Species/Cell Type: Neurospora crassa, Assay Type: Forward gene mutation, Assay Code: NEF+, Evaluation Type: Evaluation A (Pre-1980)) was “active; positive” and the call [4] was “active; positive”. For the same molecule, the mutagenic call (Species/Cell Type: Nonhuman, Assay Type: Sister-chromatid exchange (SCE) in vitro, Assay Code: SC2+D*, Activation: With metabolic activation, Dose Response: With dose response, Evaluation Type: Evaluation B (Post-1980)) was “active; positive”, the mutagenic call (Species/Cell Type: Nonhuman, Assay Type: Sister-chromatid exchange (SCE) in vivo, Assay Code: SC3+, Evaluation Type: Evaluation B (Post-1980)) was “active; positive” and the mutagenic call (Species/Cell Type: Saccharomyces cerevisiae, Assay Type: Forward gene mutation, Assay Code: YEF+*, Activation: With metabolic activation, Evaluation Type: Evaluation A (Pre-1980)) was “active; positive”. For the same molecule, the mutagenic call [5] was “active; positive”, the mutagenic call (Species/Cell Type: Saccharomyces cerevisiae, Assay Type: Mitotic recombination or gene conversion, Assay Code: YEH+*, Activation: With metabolic activation, Evaluation Type: Evaluation A (Pre-1980)) was “active; positive” and the mutagenic call [6] was “inactive; negative”. The mutagenic call [7] was “active; positive”, the mutagenic call [8] was “active; positive” and the mutagenic call (Species/Cell Type: Syrian hamster embryo (SA7/SHE) cells, Assay Type: Cell transformation, viral enhanced, Assay Code: CT7+, Evaluation Type: Evaluation A (Pre-1980)) was “active; positive”. The mutagenic call (Species/Cell Type: Syrian hamster embryo (SHE) cells, Assay Type: Cell transformation, clonal assay, Assay Code: CTC+, Evaluation Type: Evaluation A (Pre-1980)) was “active; positive” and the mutagenic call (Species/Cell Type: Tradescantia species, Assay Type: Gene mutation, Assay Code: TRM+D, Dose Response: With dose response, Evaluation Type: Evaluation A (Pre-1980)) was “active; positive”.
In the case of `Clc1ccccc1`, the mutagenic call [9] is reported as “active; positive”.
In the case of `Cc1cc(C)c(N=Nc2c(O)c(S(=O)(=O)O)cc3cc(S(=O)(=O)O)ccc23)cc1C`, the mutagenic call (Species/Cell Type: Bacillus subtilis (H17 vs M45), Assay Type: Rec-assay, spot test, DNA effects (bacterial DNA repair), Assay Code: REWT, Evaluation Type: Evaluation A (Pre-1980)) is reported as “no conclusion”, the mutagenic call (Species/Cell Type: Bacillus subtilis (H17 vs M45T), Assay Type: Rec-assay, spot test, DNA effects (bacterial DNA repair), Assay Code: REXT, Evaluation Type: Evaluation A (Pre-1980)) is reported as “no conclusion” and the call [4] is reported as “active; positive”. The mutagenic call (Species/Cell Type: Saccharomyces cerevisiae, Assay Type: Mitotic recombination or gene conversion, Assay Code: YEC-, Evaluation Type: Evaluation A (Pre-1980)) was “inactive; negative” and the mutagenic call [10] was “inactive; negative”.
With `Cc1c2ccccc2c(C)c2c1ccc1ccc(O)cc12` the mutagenic call (Species/Cell Type: Chinese hamster lung (V79) cells, Assay Type: Forward gene mutation at the HPRT or ouabain locus, Assay Code: V79-*, Activation: With metabolic activation, Evaluation Type: Evaluation A (Pre-1980)) was “inactive; negative” and the call (Species/Cell Type: Nonhuman, Assay Code: CCGT, Evaluation Type: Evaluation A (Pre-1980)) was “no conclusion”.
With `[Cl-].[Cl-].[Cl-].[Ru+3]` the mutagenic call (Species/Cell Type: Bacillus subtilis (H17 vs M45), Assay Type: Rec-assay, spot test, DNA effects (bacterial DNA repair), Assay Code: REW-, Evaluation Type: Evaluation A (Pre-1980)) was “inactive; negative”.
In the case of `O=c1[nH]cc(N(CCCl)CCCl)c(=O)[nH]1`, the mutagenic call [11] is reported as “active; positive”, the mutagenic call (Species/Cell Type: Escherichia coli polA (W3119 vs P3478), Assay Type: Rec-assay, DNA effects (bacterial DNA repair), Assay Code: RE1+, Evaluation Type: Evaluation A (Pre-1980)) is reported as “active; positive” and the mutagenic call [2] is reported as “active; positive”. The mutagenic call [3] was “inactive; negative”, the mutagenic call (Species/Cell Type: Mouse lymphoma (L5178Y) cells, Assay Type: Forward gene mutation at the thymidine kinase (TK) locus, chromosome aberrations, Assay Code: L51+, Evaluation Type: Evaluation A (Pre-1980)) was “active; positive” and the call [4] was “active; positive”. For the same molecule, the mutagenic call (Species/Cell Type: Saccharomyces cerevisiae, Assay Type: Mitotic recombination or gene conversion, Assay Code: YEH+, Evaluation Type: Evaluation A (Pre-1980)) was “active; positive”, the mutagenic call [12] was “active; positive” and the mutagenic call [8] was “active; positive”.
`ClC1=C(Cl)[C@]2(Cl)[C@H]3[C@H]([C@@H]4C=C[C@H]3C4)[C@@]1(Cl)C2(Cl)Cl` was tested, and the mutagenic call [1] was “no conclusion”, the mutagenic call (Species/Cell Type: Mammalian polychromatic erythrocytes, Assay Type: Micronucleus test, chromosome aberrations, Assay Code: MNTT, Evaluation Type: Evaluation B (Post-1980)) was “no conclusion” and the call (Species/Cell Type: Nonhuman, Assay Code: CCG+L, Evaluation Type: Evaluation A (Pre-1980)) was “active; positive”. For the same molecule, the mutagenic call [6] was “inactive; negative” and the mutagenic call [10] was “inactive; negative”.
`C[C@@H]1C[C@@]2(O[C@H]2C)C(=O)O[C@@H]2CCN3CC=C(COC(=O)[C@]1(C)O)[C@H]23` was tested, and the mutagenic call [13] was “active; positive” and the mutagenic call [1] was “no conclusion”.
`CCCCN(CC(=O)CC)N=O` was tested, and the mutagenic call [7] was “active; positive”.
With `CCC(C)c1ccccc1OC(=O)NC` (stereo unspecified) the mutagenic call (Species/Cell Type: Bacillus subtilis (H17 vs M45T), Assay Type: Rec-assay, spot test, DNA effects (bacterial DNA repair), Assay Code: REX-, Evaluation Type: Evaluation A (Pre-1980)) was “inactive; negative” and the mutagenic call (Species/Cell Type: Escherichia coli WP2, Assay Type: Tryptophan reverse gene mutation, Assay Code: WP2-, Evaluation Type: Evaluation A (Pre-1980)) was “inactive; negative”.
With `C=C=O` the mutagenic call [12] was “active; positive” and the mutagenic call (Species/Cell Type: Tradescantia species, Assay Type: Chromosome aberrations, Assay Code: TRC+, Evaluation Type: Evaluation A (Pre-1980)) was “active; positive”.
`C/C=C(C)/C=C/C=C(C)/C=C/C1=C(C)CCCC1(C)C` was tested, and the mutagenic call (Species/Cell Type: Human, Assay Type: Sister-chromatid exchange (SCE) in vitro, Assay Code: SC1+D, Dose Response: With dose response, Evaluation Type: Evaluation B (Post-1980)) was “active; positive”.
For `OCC(Cl)(Cl)Cl`, the mutagenic call (Species/Cell Type: Salmonella typhimurium (one or more of the five standard strains: TA98, TA100, TA1535, TA1537, and TA1538), Assay Type: Histidine reverse gene mutation, Ames assay, Assay Code: SALT, Evaluation Type: Evaluation A (Pre-1980)) was “no conclusion”.
In the case of `CCCCCCO`, the mutagenic call (Species/Cell Type: Nonhuman, Assay Type: Sister-chromatid exchange (SCE) in vivo, Assay Code: SC3T, Evaluation Type: Evaluation B (Post-1980)) is reported as “no conclusion”.
With `Nc1ccc([N+](=O)[O-])cc1O` the mutagenic call (Species/Cell Type: Neurospora crassa, Assay Type: Aneuploidy, chromosome aberrations, Assay Code: NEN-, Evaluation Type: Evaluation A (Pre-1980)) was “inactive; negative”, the mutagenic call [14] was “inactive; negative” and the mutagenic call [12] was “active; positive”.
For `CC(CNC(=O)N(CCCl)N=O)NC(=O)N(CCCl)N=O` (stereo unspecified), the mutagenic call [11] was “active; positive” and the mutagenic call [5] was “active; positive”.
`C=CCn1c(=O)n(C)c2c(=O)n(C)c(=O)n(C)c21` was tested, and the mutagenic call (Species/Cell Type: Allium cepa, Assay Type: Chromosome aberrations, Assay Code: ALC+D, Dose Response: With dose response, Evaluation Type: Evaluation A (Pre-1980)) was “active; positive”.
With `Nc1nc(-c2ccc([N+](=O)[O-])s2)cs1` the mutagenic call [12] was “active; positive”.
`Oc1cccc(O)c1O` was tested, and the mutagenic call [13] was “active; positive” and the mutagenic call [9] was “active; positive”.
In the case of `CCN(CC)C(=O)OC1(SC)C(=O)c2ccccc2C1=O`, the mutagenic call [8] is reported as “active; positive”.
In the case of `CC(C)NCC1CCc2cc(CO)c([N+](=O)[O-])cc2N1` (stereo unspecified), the mutagenic call [14] is reported as “inactive; negative”, the mutagenic call [12] is reported as “active; positive” and the mutagenic call (Species/Cell Type: Salmonella typhimurium, Assay Type: Forward and reverse gene mutation, body fluid assay, Assay Code: BFU+, Evaluation Type: Evaluation A (Pre-1980)) is reported as “active; positive”. The mutagenic call [8] was “active; positive”.
`C=CC(=O)OCC` was tested, and the mutagenic call [9] was “active; positive”.
